Reference: patent US8119624B2, “Fused phenyl amido heterocyclic compounds” (Pfizer Inc., priority 2006, dated 2012)

Molecular target: T1, Full-length glucokinase (beta cell isoform) (Homo sapiens, UniProt P35557)
T1 construct: Full-length glucokinase (beta cell isoform) was His-tagged at N-terminus; His tag (N); made in house
T1 sequence (P35557 1-465): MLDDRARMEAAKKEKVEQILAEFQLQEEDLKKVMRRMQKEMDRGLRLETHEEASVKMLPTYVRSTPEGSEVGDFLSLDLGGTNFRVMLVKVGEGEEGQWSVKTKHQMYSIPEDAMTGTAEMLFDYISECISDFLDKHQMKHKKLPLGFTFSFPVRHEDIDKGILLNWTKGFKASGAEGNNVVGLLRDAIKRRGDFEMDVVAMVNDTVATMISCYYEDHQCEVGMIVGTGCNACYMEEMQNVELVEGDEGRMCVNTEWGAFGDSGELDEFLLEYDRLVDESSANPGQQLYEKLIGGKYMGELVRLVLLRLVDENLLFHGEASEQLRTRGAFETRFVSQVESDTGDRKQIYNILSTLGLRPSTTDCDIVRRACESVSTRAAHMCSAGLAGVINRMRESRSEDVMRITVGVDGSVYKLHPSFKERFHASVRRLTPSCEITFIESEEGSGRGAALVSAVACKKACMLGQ
Test: Glucokinase biochemical assay (PK/LDH-coupled, NADH depletion at 340 nm): % activation, EC50, % max activation
Details: 5 mM glucose; for activation at 10 µM: 10 uM compound, % Activation=(Va/Vo−1)×100, read-out: % Activation at 10 uM; for EC50: GK activation, read-out: EC50; for Emax: fitted maximum activation, read-out: % Max Activation
Description: Full-length glucokinase (beta cell isoform) was His-tagged at N-terminus and purified by a Ni column followed by size exclusion chromatography. Glucose was obtained from Calbiochem, and other reagents were from Sigma.
All assays were performed in a Corning 96-well plate using Spectramax PLUS spectrophotometer (Molecular Devices) at room temperature. The final assay volume was 100 uL. The buffer conditions used in this assay were as follows: 50 mM HEPES, 5 mM glucose, 1 mM ATP, 2 mM MgCl2, 0.7mM NADH, 2 mM DTT, 1 Unit/mL PK/LDH, 0.2 mM phosphoenolpyruvate, 25 mM KCl. Tested compound in DMSO solution was added to the buffer and mixed well by a plate shaker for 1 minute. The final concentration of DMSO introduced into the assay was 1%.
Glucokinase was added to the buffer mixture to initiate the reaction in the presence and absence of compound. Reaction was monitored by absorbance at 340nm due to the depletion of NADH. The initial reaction velocity was measured by the slope of a linear time course of 200-900 sec.
The percentage of activation was calculated by the following equation: % Activation=(Va/Vo−1)×100;
wherein each of Va and Vo is defined as the initial reaction velocity in the presence and absence of the tested compound, respectively.
The GK activities were measured as a function of compound concentrations.

| Compound | activation at 10 µM [%] | EC50 [µM] | Emax [%] |
| --- | --- | --- | --- |
| CN(C)C(=O)c1cc2c(Oc3ccc(S(C)(=O)=O)cc3)cc(C(=O)Nc3cnn(C)n3)cc2o1 [Example 288, N2,N2-Dimethyl-4-[4-(methylsulfonyl)phenoxy]-N6-(2-methyl-2H-1,2,3-triazol-4-yl)-1-benzofuran-2,6-dicarboxamide] | 161 | 1.7 | 188 |
| Cc1ccc(NC(=O)c2cc(Oc3ccc(S(C)(=O)=O)cc3F)c3c(c2)OC(C)(C)C3)nc1 [Example 120, 4-(2-Fluoro-4-methanesulfonyl-phenoxy)-2,2-dimethyl-2,3-dihydro-benzofuran-6-carboxylic acid (5-methyl-pyridin-2-yl)-amide] | 80.5 | 0.2 | 79 |
| Cn1ccc(NC(=O)c2cc(Oc3cccc(C(=O)N4CCC4)c3)c3c(c2)OC(C)(C)C3)n1 [Example 37, 4-[3-(Azetidine-1-carbonyl)-phenoxy]-2,2-dimethyl-2,3-dihydro-benzofuran-6-carboxylic acid(1-methyl-1H-pyrazol-3-yl)-amide] | 107 | 0.89 | 143 |
| Cc1ccc(NC(=O)c2cc(Oc3ccc(S(C)(=O)=O)cc3)c3cc(CO)oc3c2)nc1 [Example 316, 2-(Hydroxymethyl)-N-(5-methylpyridin-2-yl)-4-(4-(methylsulfonyl)-phenoxy)benzofuran-6-carboxamide] | 73.7 | 0.41 | 78 |
| Cc1ccc(NC(=O)c2cc(Oc3ccc(S(C)(=O)=O)cc3)cc3c2CC(C)O3)nc1 (centres unmarked) [Example 2, 6-(4-Methanesulfonyl-phenoxy)-2-methyl-2,3-dihydrobenzofuran-4-carboxylic acid(5-methyl-pyridin-2-yl)-amide] | 113 | 5.3 | 152 |
| Cn1ccc(NC(=O)c2cc(Oc3ccc(C#N)nc3)c3c(c2)OC(C)(C)C3)n1 [Example 181, 4-(6-Cyano-pyridin-3-yloxy)-2,2-dimethyl-2,3-dihydro-benzofuran-6-carboxylic acid (1-methyl-1H-pyrazol-3-yl)-amide] | 171 | 1.1 | 182 |
| Cn1ncc(NC(=O)c2cc(Oc3ccc(S(=O)(=O)C4CC4)c(F)c3)c3c(c2)OC(C)(C)C3)n1 [Example 140, 4-(4-Cyclopropanesulfonyl-3-fluoro-phenoxy)-2,2-dimethyl-2,3-dihydro-benzofuran-6-carboxylic acid (2-methyl-2H-[1,2,3]triazol-4-yl)-amide] | 196 | 0.17 | 236 |
| Cc1ccc(NC(=O)c2cc(Oc3ccc(S(C)(=O)=O)cc3)c3sccc3c2)nc1 [Example 363, 7-(4-Methanesulfonyl-phenoxy)-benzo[b]thiophene-5-carboxylic acid(5-methyl-pyridin-2-yl)-amide] | 52.3 | 7.65 | 99 |
| CCNC(=O)c1c(F)cc(Oc2cc(C(=O)Nc3ccn(C)n3)cc3c2CC(C)(C)O3)cc1F [Example 112, 4-(4-Ethylcarbamoyl-3,5-difluoro-phenoxy)-2,2-dimethyl-2,3-dihydro-benzofuran-6-carboxylic acid (1-methyl-1H-pyrazol-3-yl)-amide] | 130 | 0.044 | 153 |
| Cn1ccc(NC(=O)c2cc(Oc3ccc(S(=O)(=O)C4CCC4)cc3)c3c(c2)OC(C)(C)C3)n1 [Example 123, 4-(4-Cyclobutanesulfonyl-phenoxy)-2,2-dimethyl-2,3-dihydro-benzofuran-6-carboxylic acid (1-methyl-1H-pyrazol-3-yl)-amide] | 189 | 0.055 | 150 |
| Cc1ccc(NC(=O)c2cc(Oc3ccc(S(C)(=O)=O)cc3)c3cc(Cn4ccnc4C)oc3c2)nc1 [Example 320, 2-[(2-Methyl-1H-imidazol-1-yl)methyl]-N-(5-methylpyridin-2-yl)-4-[4-(methylsulfonyl)phenoxy]-1-benzofuran-6-carboxamide] | 39.2 | 2.5 | 41 |
| Cn1ccc(NC(=O)c2cc(Oc3ccc(S(C)(=O)=O)cc3)c3c(c2)OC(C)(C)C3)n1 [Example 16, 4-(4-Methanesulfonyl-phenoxy)-2,2-dimethyl-2,3-dihydro-benzofuran-6-carbo-xylic acid(1-methyl-1H-pyrazol-3-yl)-amide] | 213 | 0.506 | 192 |
| CN(C)C(=O)c1ccc(Oc2cc(C(=O)Nc3ccn(C)n3)cc3occc23)cc1F [Example 341, 4-(4-(Dimethylcarbamoyl)-3-fluorophenoxy)-N-(1-methyl-1H-pyrazol-3-yl)benzofuran-6-carboxamide] | 59 | 1.7 | 69 |
| Cn1ncc(NC(=O)c2cc(Oc3ccc(C(=O)N4CCC4)nc3)c3c(c2)OC(C)(C)C3)n1 [Example 169, 4-[6-(Azetidine-1-carbonyl)-pyridin-3-yloxy]-2,2-dimethyl-2,3-dihydro-benzofuran-6-carboxylic acid (2-methyl-2H-[1,2,3]triazol-4-yl)-amide] | 125 | 0.056 | 141 |
| CCS(=O)(=O)c1ccc(Oc2cc(C(=O)Nc3ccn(C)n3)cc3c2CC(C)(C)O3)cc1 [Example 127, 4-(4-Ethanesulfonyl-phenoxy)-2,2-dimethyl-2,3-dihydro-benzofuran-6-carboxylic acid (1-methyl-1H-pyrazol-3-yl)-amide] | 193 | 0.066 | 165 |
| CC(C)Oc1cc(C(=O)Nc2ccn(C)n2)cc2c1CC(COc1ccccc1)O2 (centres unmarked) [Example 214, 4-Isopropoxy-2-phenoxymethyl-2,3-dihydro-benzofuran-6-carboxylic acid (1-methyl-1H-pyrazol-3-yl)-amide] | 12 | – | – |
| CN(C)C(=O)c1cc(F)c(Oc2cc(C(=O)Nc3ccn(C)n3)cc3c2CC(C)(C)O3)cc1F [Example 109, 4-(4-Dimethylcarbamoyl-2,5-difluoro-phenoxy)-2,2-dimethyl-2,3-dihydro-benzofuran-6-carboxylic acid (1-methyl-1H-pyrazol-3-yl)-amide] | 86.9 | 0.28 | 83 |
| CC1(C)Cc2c(Oc3ccc(S(C)(=O)=O)cc3)cc(C(=O)Nc3ccc(CO)cn3)cc2O1 [Example 22, 4-(4-Methanesulfonyl-phenoxy)-2,2-dimethyl-2,3-dihydro-benzofuran-6-carboxylic acid (5-hydroxymethyl-pyridin-2-yl)-amide] | 118 | 0.29 | 117 |
| Cc1nc(COc2cc(C(=O)Nc3ccn(C)n3)cc3c2CC(C)(C)O3)no1 [Example 96, 2,2-Dimethyl-4-(5-methyl-[1,2,4]oxadiazol-3-ylmethoxy)-2,3-dihydro-benzofuran-6-carboxylic acid (1-methyl-1H-pyrazol-3-yl)-amide] | 107 | 7.3 | 148 |
| CN(C)C(=O)c1ccc(Oc2cc(C(=O)Nc3ccncn3)cc3c2CC(C)(C)O3)cc1 [Example 156, 4-(4-Dimethylcarbamoyl-phenoxy)-2,2-dimethyl-2,3-dihydro-benzofuran-6-carboxylic acid pyrimidin-4-ylamide] | 52 | 0.46 | 49 |
| Cn1ccc(NC(=O)c2cc(OCC3CC3)c3c(c2)OC(C)(C)C3)n1 [Example 89, 4-Cyclopropylmethoxy-2,2-dimethyl-2,3-dihydro-benzofuran-6-carboxylic acid (1-methyl-1H-pyrazol-3-yl)-amide] | 139 | 3.9 | 157 |
| Cc1ccc(NC(=O)c2cc(Oc3ccc(C(=O)N(C)C)c(F)c3)c3ccoc3c2)nc1 [Example 342, 4-(4-(Dimethylcarbamoyl)-3-fluorophenoxy)-N-(5-methylpyridin-2-yl)benzofuran-6-carboxamide] | 15 | – | – |
| Cn1ccc(NC(=O)c2cc(Oc3ccc(S(C)(=O)=O)cc3)c3c(c2)OC(CF)C3)n1 (centres unmarked) [Example 224, 2-Fluoromethyl-4-(4-methanesulfonyl-phenoxy)-2,3-dihydro-benzofuran-6-carboxylic acid (1-methyl-1H-pyrazol-3-yl)-amide] | 142 | 2.3 | 160 |
